# Where a SMILES comes first, the peptide text is derived from it.
# What was measured:
# [1] = system: E. coli DC2; type: cell-based, Escherichia coli; conditions: E. coli DC2 (outer membrane deficient mutant)
# Protocol: (§1) The biological activity of the peptides can be determined by standard methods known to those of skill in the art, such as a “minimal inhibitory concentration” (MIC) assay (see Wu and Hancock (1999) J. Biol Chem. 274:29-35 and Examples section). A MIC assay allows the determination of the lowest concentration of peptide that inhibits the multiplication and growth of mircoorganisms. Changes in the microorganism population are assessed by measuring the optical density (OD) of the population in broth or medium. Peptide MIC's can be determined for a variety of micoorganisms under a variety of conditions. Another assay for the biological activity of the peptides is a “fractional inhibitory concentration” (FIC) assay. This assay is especially useful for determining synergistic effects between the peptides of the invention, and between invention peptides and other compounds such as known antibiotics. A FIC assay employs the strategy of a MIC assay with additional variable(s), e.g., known antibiotics. […] The FIC is calculated by looking at the impact of an antibiotic on the MIC of the peptide and the reciprocal relationship. […] As used herein, FIC can be determined as follows: […]
# (§2) MIC Assay p The minimum inhibitory concentrations of (MIC) of several invention peptides were determined using methods described elsewhere (Wu and Hancock, (1999) J. Biol Chem. 274:29-35). […]
# [2] = system: E. coli KF130; type: cell-based, Escherichia coli
# Protocol: as §1, §2
# [3] = system: E. coli 0111:B4 LPS induced production of TNF-α in RAW macrophages; test: Reduction of LPS-induced TNF-α in RAW 264.7 macrophages (ELISA); type: cell-based, murine; conditions: peptide 20 μg/ml; LPS 100 ng/ml; RAW 264.7; 6 hours
# Protocol: (§3) The ability of invention peptides to reduce LPS-induced tumor necrosis factor (TNF) production was tested in an in vitro assay. The murine macrophage cell line RAW 264.7 was obtained from American Type Culture Collection (Manassas, Va.) and grown in DMEM medium supplemented with 10% fetal calf serum. The cells were plated at a density of 10^6 cells/well in 24 well plates, incubated overnight, then washed with fresh medium. E. coli 0111 :B4 (100 ng/ml) was added at time 0 to RAW macrophages. Invention peptides […]/m were added at time 0, 30 and 60 minutes and the cells were stimulated for 6 hours. Levels of TNF and interleukin-6 (IL-6) were measured after 6 hours.
# [4] = system: E. coli 0111:B4 LPS induced production of IL-6 in RAW macrophages; test: Reduction of LPS-induced IL-6 in RAW 264.7 macrophages (ELISA); type: cell-based, murine; conditions: peptide 20 μg/ml; LPS 100 ng/ml; RAW 264.7; 6 hours
# Protocol: as §3
# [5] = LPS-induced endotoxemia in galactosamine-sensitized mice; type: in vivo; conditions: 200 μg peptide intraperitoneally, groups of 10 mice, up to 24 h
# Protocol: Bacterial endotoxin (LPS) is highly toxic and can cause high mortality in both humans and animals when released during Gram-negative bacterial infection. Galactosamine-treated mice exposed to moderate does of endotoxin typically die from endotoxic shock within 17 hours following exposure. Invention peptides can be tested for their ability to protect mice against endotoxin-induced death (see Examples section). The anti-endotoxic activity of invention peptides also can be tested in an in vitro assay using a macrophage cell line (Gough et al. (1996) Infect. Immun. 64:4922-4927; and Examples section).
# The ability of invention peptides to protect against LPS-induced endotoxemia was assessed in vivo. Mice (8-10 weeks old) were injected intraperitoneally with […] D-galactosamine (Dgal) to sensitize them to LPS according to the method of Galanos (Galanos et al. (1979) Proc. Natl. Acad. Sci., USA, 76:5939-5943). Endotoxic shock was induces by intraperitoneal injections of 3 μg/mL E. coli 111 :B4 LPS in phosphate-buffered saline (PBS). Invention peptides (200 μg/100 μl sterile water) were injected intraperitoneally at a separate site within 10 min of LPS injection, and survival was monitored up to 24 h following injection.
smiles,measurement,setting,value
"CC(C)[C@@H]1NC(=O)[C@H](CCCNC(=N)N)NC(=O)[C@H](Cc2ccccc2)NC(=O)[C@@H](NC(=O)[C@H](Cc2c[nH]c3ccccc23)NC(=O)[C@H](CCCNC(=N)N)NC(=O)[C@@H](N)CCCNC(=N)N)CSSC[C@@H](C(=O)N[C@@H](CCCNC(=N)N)C(N)=O)NC(=O)[C@H](CCCCN)NC(=O)[C@H](CCCNC(=N)N)NC(=O)[C@H](Cc2ccc(O)cc2)NC(=O)[C@@H]2CSSC[C@H](NC1=O)C(=O)N[C@@H](Cc1ccc(O)cc1)C(=O)N[C@@H](CCCNC(=N)N)C(=O)NCC(=O)N[C@@H](Cc1ccccc1)C(=O)N2 [Polyphemusin I] (HELM PEPTIDE1{R.R.W.C.F.R.V.C.Y.R.G.F.C.Y.R.K.C.R.[am]}$PEPTIDE1,PEPTIDE1,4:R3-17:R3|PEPTIDE1,PEPTIDE1,8:R3-13:R3$$$V2.0; N-terminus and C-terminus assumed)",MIC,[1],0.125 mg/L
same,MIC,[2],0.125 mg/L
same,Inhibition of TNF-α (%),[3],83 ± 6%
same,Inhibition of IL-6 (%),[4],84 ± 3%
same,"Survival (%), LPS-Endotoxemia",[5],10%

# From patent US6337317B1, “Antimicrobial peptides and methods of use thereof” (priority 2000, dated 2002)
